Measured values as given in ChEMBL document CHEMBL1135773, “Purine and pyrimidine (P2) receptors as drug targets” (J Med Chem, 2002).

Experiments:
P2X purinoceptor 3 [1] = biological target: T1, P2X purinoceptor 3 (Homo sapiens, UniProt P56373); assay: The compound was evaluated for antagonist activity against recombinant human P2X purinoceptor 3 (P2X3 ); format: functional
T1 sequence (P56373 whole entry): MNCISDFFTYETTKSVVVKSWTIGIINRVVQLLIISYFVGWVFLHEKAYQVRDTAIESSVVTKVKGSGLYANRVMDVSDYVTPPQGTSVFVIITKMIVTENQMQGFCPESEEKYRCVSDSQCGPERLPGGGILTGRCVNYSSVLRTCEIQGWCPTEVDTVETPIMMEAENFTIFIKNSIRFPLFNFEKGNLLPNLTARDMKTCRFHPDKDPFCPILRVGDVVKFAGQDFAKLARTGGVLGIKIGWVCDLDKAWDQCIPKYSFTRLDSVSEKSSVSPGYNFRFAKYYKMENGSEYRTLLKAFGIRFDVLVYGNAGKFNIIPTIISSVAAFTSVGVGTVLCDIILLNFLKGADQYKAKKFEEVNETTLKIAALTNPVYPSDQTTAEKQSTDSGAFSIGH

P2X purinoceptor 1 [2] = biological target: T2, P2X purinoceptor 1 (Rattus norvegicus, UniProt P47824); assay: The compound was evaluated for antagonist activity against recombinant rat P2X purinoceptor 1 (P2X1); format: functional
T2 sequence (P47824 whole entry): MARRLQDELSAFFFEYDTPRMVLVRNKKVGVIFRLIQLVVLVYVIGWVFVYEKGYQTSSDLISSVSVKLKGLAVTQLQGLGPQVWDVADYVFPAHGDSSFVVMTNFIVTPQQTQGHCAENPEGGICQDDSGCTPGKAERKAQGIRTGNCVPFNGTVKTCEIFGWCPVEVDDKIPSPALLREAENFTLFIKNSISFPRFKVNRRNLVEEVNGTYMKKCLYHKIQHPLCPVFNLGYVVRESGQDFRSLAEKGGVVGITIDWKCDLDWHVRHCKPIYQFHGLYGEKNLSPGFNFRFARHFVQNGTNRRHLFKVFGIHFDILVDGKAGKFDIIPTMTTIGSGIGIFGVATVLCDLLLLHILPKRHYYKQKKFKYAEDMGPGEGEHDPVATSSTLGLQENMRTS

P2X purinoceptor 2 = P2X purinoceptor 2 (Homo sapiens, UniProt Q9UBL9); assay: The compound was evaluated for antagonist activity against recombinant human receptor P2X purinoceptor 2 (P2X2 ); format: functional
P2X purinoceptor 6 = P2X purinoceptor 6 (Rattus norvegicus, UniProt P51579); assay: Antagonist activity against recombinant rat P2X purinoceptor 6 (P2X6 ); format: functional
P2X purinoceptor 5 = biological target: T3, P2X purinoceptor 5 (Rattus norvegicus, UniProt P51578); assay: Antagonist activity against recombinant rat P2X purinoceptor 5 (P2X5); format: functional
T3 sequence (P51578 whole entry): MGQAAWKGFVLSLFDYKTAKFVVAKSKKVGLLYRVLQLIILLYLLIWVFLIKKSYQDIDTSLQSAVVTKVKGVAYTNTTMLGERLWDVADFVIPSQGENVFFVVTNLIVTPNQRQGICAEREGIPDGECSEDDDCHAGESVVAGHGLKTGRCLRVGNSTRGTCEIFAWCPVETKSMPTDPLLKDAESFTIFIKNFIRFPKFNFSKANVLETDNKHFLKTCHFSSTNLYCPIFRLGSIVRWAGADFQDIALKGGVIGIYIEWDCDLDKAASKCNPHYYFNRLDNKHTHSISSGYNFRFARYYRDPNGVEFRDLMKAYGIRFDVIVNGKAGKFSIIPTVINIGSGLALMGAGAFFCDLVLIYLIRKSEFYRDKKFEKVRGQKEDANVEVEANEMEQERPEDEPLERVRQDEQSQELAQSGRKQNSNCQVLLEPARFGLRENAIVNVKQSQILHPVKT

P2Y purinoceptor 12 = P2Y purinoceptor 12 (Rattus norvegicus, UniProt Q9EPX4); assay: Antagonist activity against phospholipase C coupled rat P2Y purinoceptor 12 (P2Y12); format: functional
P2Y purinoceptor 2 = P2Y purinoceptor 2 (Homo sapiens, UniProt P41231); assay: Evaluated for agonist activity against phospholipase C coupled recombinant human P2Y purinoceptor 2 (P2Y2); format: functional
P2X purinoceptor 3 [3] = biological target: T1, P2X purinoceptor 3; assay: Antagonist activity against recombinant human P2X purinoceptor 3 (P2X3 ); format: functional
P2X purinoceptor 4 [4] = biological target: T4, P2X purinoceptor 4 (Rattus norvegicus, UniProt P51577); assay: Antagonist activity against recombinant rat P2X purinoceptor 4 (P2X4) at 30 uM, expressed in Xenopus oocytes; format: functional, cell-based, Oocyte
T4 sequence (P51577 whole entry): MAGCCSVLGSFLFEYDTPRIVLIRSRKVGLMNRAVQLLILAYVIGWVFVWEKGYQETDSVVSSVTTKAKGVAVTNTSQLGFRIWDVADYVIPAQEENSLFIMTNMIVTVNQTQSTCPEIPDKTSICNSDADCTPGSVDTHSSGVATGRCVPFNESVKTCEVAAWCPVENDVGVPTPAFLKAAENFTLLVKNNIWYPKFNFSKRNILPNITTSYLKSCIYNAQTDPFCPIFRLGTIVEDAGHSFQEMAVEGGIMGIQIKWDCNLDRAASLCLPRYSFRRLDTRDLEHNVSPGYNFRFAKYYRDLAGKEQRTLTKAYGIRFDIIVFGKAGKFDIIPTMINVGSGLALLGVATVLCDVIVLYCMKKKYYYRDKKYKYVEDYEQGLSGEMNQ

P2X purinoceptor 1 [5] = biological target: T5, P2X purinoceptor 1 (Homo sapiens, UniProt P51575); assay: Antagonist activity against recombinant human P2X purinoceptor 1 (P2X1 ); format: functional
T5 sequence (P51575 whole entry): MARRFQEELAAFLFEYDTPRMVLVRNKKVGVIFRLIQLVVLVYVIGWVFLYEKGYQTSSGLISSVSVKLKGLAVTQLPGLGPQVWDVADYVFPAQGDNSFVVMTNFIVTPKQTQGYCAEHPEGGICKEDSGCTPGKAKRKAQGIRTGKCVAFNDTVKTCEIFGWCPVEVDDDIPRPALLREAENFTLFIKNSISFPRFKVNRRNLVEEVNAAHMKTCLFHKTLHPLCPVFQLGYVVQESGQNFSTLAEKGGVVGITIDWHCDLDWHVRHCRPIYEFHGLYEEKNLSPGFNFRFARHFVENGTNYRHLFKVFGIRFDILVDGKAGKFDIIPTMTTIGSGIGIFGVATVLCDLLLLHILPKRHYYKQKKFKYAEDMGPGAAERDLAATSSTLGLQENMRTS

P2X purinoceptor 4 [6] = biological target: T6, P2X purinoceptor 4 (Homo sapiens, UniProt Q99571); assay: Antagonist activity against recombinant human P2X purinoceptor 4 (P2X4); format: functional
T6 sequence (Q99571 whole entry): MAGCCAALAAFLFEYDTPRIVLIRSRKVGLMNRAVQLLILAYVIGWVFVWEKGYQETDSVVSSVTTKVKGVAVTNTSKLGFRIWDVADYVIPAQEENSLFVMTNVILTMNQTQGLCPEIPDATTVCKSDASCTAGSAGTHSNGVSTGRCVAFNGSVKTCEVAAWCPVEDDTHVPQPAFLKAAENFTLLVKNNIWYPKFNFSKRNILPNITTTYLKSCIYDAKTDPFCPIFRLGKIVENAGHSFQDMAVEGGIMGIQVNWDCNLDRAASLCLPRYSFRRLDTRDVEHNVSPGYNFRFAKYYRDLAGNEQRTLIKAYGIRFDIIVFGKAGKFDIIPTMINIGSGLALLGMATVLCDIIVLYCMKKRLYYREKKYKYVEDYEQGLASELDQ

P2X purinoceptor 7 = biological target: T7, P2X purinoceptor 7 (Homo sapiens, UniProt Q99572); assay: Antagonist activity against recombinant human P2X purinoceptor 7 (P2X7); format: functional
T7 sequence (Q99572 whole entry): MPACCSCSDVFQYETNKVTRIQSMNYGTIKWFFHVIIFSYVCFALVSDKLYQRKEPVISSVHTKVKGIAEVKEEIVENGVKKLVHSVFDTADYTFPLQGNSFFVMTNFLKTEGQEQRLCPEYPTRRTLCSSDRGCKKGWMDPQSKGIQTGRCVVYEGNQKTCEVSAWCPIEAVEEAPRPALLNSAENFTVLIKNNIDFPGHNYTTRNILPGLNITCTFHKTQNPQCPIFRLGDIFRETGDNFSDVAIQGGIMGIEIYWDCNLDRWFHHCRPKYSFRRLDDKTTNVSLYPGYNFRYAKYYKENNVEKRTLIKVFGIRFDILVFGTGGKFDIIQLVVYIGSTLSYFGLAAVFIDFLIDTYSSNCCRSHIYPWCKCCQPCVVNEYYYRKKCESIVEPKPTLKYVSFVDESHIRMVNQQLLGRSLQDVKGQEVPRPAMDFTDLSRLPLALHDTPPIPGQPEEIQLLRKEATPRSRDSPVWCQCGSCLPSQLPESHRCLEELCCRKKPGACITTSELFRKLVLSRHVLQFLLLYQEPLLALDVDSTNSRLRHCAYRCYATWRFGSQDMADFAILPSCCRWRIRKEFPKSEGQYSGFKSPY

P2Y purinoceptor 4 = P2Y purinoceptor 4 (Rattus norvegicus, UniProt O35811); assay: The compound was evaluated for antagonist activity against phospholipase C coupled recombinant rat P2Y purinoceptor 4 (P2Y4); format: functional
P2Y purinoceptor 4, sequence (O35811 whole entry): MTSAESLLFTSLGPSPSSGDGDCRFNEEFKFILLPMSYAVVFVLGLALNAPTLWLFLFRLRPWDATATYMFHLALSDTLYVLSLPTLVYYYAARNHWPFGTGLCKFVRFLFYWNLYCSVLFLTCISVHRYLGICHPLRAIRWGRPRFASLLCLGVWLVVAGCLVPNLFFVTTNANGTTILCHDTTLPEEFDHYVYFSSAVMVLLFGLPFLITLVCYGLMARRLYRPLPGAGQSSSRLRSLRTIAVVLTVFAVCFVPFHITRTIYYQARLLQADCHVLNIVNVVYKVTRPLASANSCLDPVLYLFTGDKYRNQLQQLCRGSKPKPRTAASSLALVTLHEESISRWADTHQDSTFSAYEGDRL

P2Y purinoceptor 2, sequence (P41231 whole entry): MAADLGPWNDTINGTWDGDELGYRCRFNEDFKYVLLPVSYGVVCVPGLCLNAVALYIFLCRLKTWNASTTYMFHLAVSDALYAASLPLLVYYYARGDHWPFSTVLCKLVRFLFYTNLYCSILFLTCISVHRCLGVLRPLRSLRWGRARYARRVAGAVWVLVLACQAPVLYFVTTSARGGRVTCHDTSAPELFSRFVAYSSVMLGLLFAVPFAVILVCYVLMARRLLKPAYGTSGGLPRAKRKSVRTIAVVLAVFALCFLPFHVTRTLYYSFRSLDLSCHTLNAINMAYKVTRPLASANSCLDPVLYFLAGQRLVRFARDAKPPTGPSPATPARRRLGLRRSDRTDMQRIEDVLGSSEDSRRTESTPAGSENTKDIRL
P2X purinoceptor 2, sequence (Q9UBL9 whole entry): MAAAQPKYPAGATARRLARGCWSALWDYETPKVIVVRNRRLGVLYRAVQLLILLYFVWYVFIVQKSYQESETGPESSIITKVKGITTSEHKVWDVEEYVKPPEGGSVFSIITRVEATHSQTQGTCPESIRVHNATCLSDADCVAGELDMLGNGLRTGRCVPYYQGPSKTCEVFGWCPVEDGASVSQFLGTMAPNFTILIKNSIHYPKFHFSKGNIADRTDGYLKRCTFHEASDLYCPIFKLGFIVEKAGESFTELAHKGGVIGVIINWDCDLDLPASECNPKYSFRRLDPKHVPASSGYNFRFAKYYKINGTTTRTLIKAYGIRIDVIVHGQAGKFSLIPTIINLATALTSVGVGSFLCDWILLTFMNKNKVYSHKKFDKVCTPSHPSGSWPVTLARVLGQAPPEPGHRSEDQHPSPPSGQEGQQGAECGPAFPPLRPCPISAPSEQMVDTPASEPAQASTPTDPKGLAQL
P2X purinoceptor 6, sequence (P51579 whole entry): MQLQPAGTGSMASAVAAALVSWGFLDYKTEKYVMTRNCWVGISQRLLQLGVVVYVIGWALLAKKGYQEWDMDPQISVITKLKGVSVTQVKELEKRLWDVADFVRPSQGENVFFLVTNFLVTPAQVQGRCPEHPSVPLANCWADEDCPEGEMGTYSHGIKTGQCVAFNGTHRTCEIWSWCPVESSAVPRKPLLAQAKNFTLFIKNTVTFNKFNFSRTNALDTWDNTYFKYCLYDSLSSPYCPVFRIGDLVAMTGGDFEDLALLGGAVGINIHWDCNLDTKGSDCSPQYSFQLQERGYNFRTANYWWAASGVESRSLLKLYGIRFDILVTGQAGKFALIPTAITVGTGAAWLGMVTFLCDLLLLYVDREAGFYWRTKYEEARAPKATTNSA
P2Y purinoceptor 12, sequence (Q9EPX4 whole entry): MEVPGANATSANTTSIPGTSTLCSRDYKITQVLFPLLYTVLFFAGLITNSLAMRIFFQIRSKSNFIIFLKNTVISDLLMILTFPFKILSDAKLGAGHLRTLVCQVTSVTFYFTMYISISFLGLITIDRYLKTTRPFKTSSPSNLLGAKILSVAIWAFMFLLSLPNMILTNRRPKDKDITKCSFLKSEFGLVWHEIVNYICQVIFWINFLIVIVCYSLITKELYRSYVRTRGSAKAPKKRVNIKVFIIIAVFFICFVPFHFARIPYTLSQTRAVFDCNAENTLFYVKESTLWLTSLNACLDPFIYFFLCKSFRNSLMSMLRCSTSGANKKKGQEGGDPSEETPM

SMILES	EC50 (P2X purinoceptor 2)	EC50 (P2Y purinoceptor 2)	EC50 (P2X purinoceptor 3 [3])	EC50 (P2X purinoceptor 1 [5])	EC50 (P2X purinoceptor 4 [6])	also measured
Cc1nc(/N=N/c2cc(S(=O)(=O)O)ccc2S(=O)(=O)O)c(COP(=O)(O)O)c(C=O)c1O [ISOPPADS]						IC50 (P2X purinoceptor 3 [1]): 0.084 µM; EC50 (P2X purinoceptor 1 [2]): 0.043 µM
Nc1ncnc2c1ncn2[C@@H]1O[C@H](COP(=O)(O)OP(=O)(O)O)[C@@H](O)[C@H]1O [ADENOSINE DIPHOSPHATE]	> 100 µM	> 100 µM	> 100 µM	10 µM		EC50 (P2X purinoceptor 6): 11 µM; EC50 (P2X purinoceptor 5): 18 µM; EC50 (P2Y purinoceptor 12): 0.069 µM; EC50 (P2X purinoceptor 4 [4]): 28 µM
CN([C@@H](Cc1ccc(OS(=O)(=O)c2cccc3cnccc23)cc1)C(=O)N1CCN(c2ccccc2)CC1)S(=O)(=O)c1cccc2cnccc12					100 µM	EC50 (P2X purinoceptor 7): 0.034 µM
Nc1ncnc2c1ncn2[C@@H]1O[C@H](COP(=O)(O)OP(=O)(O)OP(=O)(O)OP(=O)(O)OC[C@H]2O[C@@H](n3cnc4c(N)ncnc43)[C@H](O)[C@@H]2O)[C@@H](O)[C@H]1O [DIADENOSINE TETRAPHOSPHATE]	15 µM	0.72 µM	0.5 µM	0.182 µM	1 µM	EC50 (P2Y purinoceptor 4): 3 µM
